Test results as given in paper PMC8696028, “Tricarboxylate Citrate Transporter of an Oleaginous Fungus Mucor circinelloides WJ11: From Function to Structure and Role in Lipid Production” (Frontiers in Nutrition, 2021).

Target: T1, Tct (tricarboxylate citrate transporter; tricarboxylate carrier) (Mucor circinelloides, UniProt S2K4S3)
T1 construct: gene HMPREF1544_06035; full-length tct (321 residues), E. coli codon-optimised, pET30a(+) NdeI/HindIII with C-terminal His tag, E. coli BL21(DE3); urea-denatured, Ni-purified, renatured, reconstituted in liposomes
Assay: […]citrate/citrate exchange in Tct-reconstituted proteoliposomes, inhibitor-stop method
Assay type: biochemical
Conditions: 10 mM internal citrate, 0.01 mM external [14C]citrate, 2 min

T1 sequence (S2K4S3 entry or part of it): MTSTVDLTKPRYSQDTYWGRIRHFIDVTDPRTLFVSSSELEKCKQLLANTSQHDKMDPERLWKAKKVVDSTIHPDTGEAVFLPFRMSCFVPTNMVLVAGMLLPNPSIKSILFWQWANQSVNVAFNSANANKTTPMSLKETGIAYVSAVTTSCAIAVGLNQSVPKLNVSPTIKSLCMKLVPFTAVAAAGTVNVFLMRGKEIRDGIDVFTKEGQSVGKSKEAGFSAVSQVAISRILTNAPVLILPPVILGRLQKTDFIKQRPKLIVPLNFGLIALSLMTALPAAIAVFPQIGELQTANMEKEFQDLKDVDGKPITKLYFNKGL

In the case of `Cc1ncc(COP(=O)(O)O)c(C=O)c1O` [pyridoxal 5'-phosphate], the “inhibition at 20 mM” value was “Pyridoxal-5'-phosphate (PLP) and pHMB strongly inhibit Tct transport activity”.
